Literature values as cited in patent publication US20110009340A1, “COMBINATION OF AN IRON CHELATOR AND AN IMMUNOSUPPRESSANT AND USE THEREOF” (NOVARTIS AG, priority 2008, published 2011).

In the case of `CC(=O)N(O)CCCCCNC(=O)CCC(=O)N(O)CCCCCNC(=O)CCC(=O)N(O)CCCCCN.CS(=O)(=O)O` [Deferoxamine mesylate USP, N-[5-[3-[(5-aminopentyl)hydroxycarbamoyl]propionamido]pentyl]-3-[[5-(N-hydroxyacetamido)pentyl]carbamoyl]propionohydroxamic acid monomethanesulfonate (salt)], the solubility in methanol (methanol) is listed as “slightly soluble” and the solubility in water (water) is listed as “freely soluble”.
